Measured values from patent US6468537B1, “Localization of major peptide autoepitopes for nucleosome specific T cells of systemic lupus erythematosus” (The Board of Trustees of Northwestern University, priority 1999, dated 2002).

How the values were obtained:
SNF1 mice [1] = assay: IgG anti-nuclear autoantibody and total IgG levels in sera of peptide-injected mice (ELISA); type: in vivo, mouse; details: sera 1:400
Method: (§1) Long-term experiments used 12 week-old, autoimmune, but pre-nephritic SNF1 female mice. Nine mice per peptide test group were injected intravenously with either a saline (solution) or a peptide solution comprising saline and 300 micrograms of one of H2B10-33, H416-39, and H471-94. Each mouse received three subsequent injections of either the saline solution or one of the peptide solutions at two-week intervals. The mice were monitored weekly for proteinuria using an Albustix kit (VWR Scientific, Chicago, Ill.), and sacrificed upon the development of persistent proteinuria. Persistent protenuria was identified as an amount of protein in urine that is equivalent to or greater than 300 milligrams per deciliter, and is a primary indication of severe kidney disease and damage associated with nephritis. Sera were collected from each mouse and the IgG anti-nuclear autoantibodies determined. Blood urea nitrogen (BUN) was measured by Azostix (Miles, Ekhart, Ind.). Immune complex deposition and glomerulonephritis in the kidney were detected by staining with Hematoxylin and Eosin and anti-mouse Ig. These procedures were carried out as previously described (Mohan et al., 1993, J. Exp. Med. 177:1367; Mohan et al., 1995, J. Immunol. 154:1470; Eastcott et al., 1983, J. Immunol. 131:2232; Adams et al., 1991, Proc. Natl. Acad. Sci. USA 88:11271; Kalled et al., 1998, J. Immunol. 160:2158; Gaynor et al., 1997, Proc. Natl. Acad. Sci. USA 94:1955).
(§2) Levels of IgG class autoantibodies specific for single-stranded DNA (ssDNA), double-stranded DNA (dsDNA), histones, and nucleosomes (i.e. histone-DNA complexes), in culture supernatants or serum, were estimated using an enzyme-linked immunosorbent assay (ELISA). Anti-DNA mAbs 564 and 205 were used to generate standard curves as previously described (Mohan et al., 1993, J. Exp. Med. 177:1367; Kaliyaperumal et al., 1996, J. Exp. Med. 183:2459; Mohan et al., 1995, J. Immunol. 154:1470; Adams et al., 1991, Proc. Natl. Acad. Sci. USA 88:11271). Sera were diluted 1:400 and heat-inactivated before use according to standard procedures. Sera from normal SWR mice were used as the negative control. Total polyclonal IgG levels were also measured by ELISA as previously described (Mohan et al., 1993, J. Exp. Med. 177:1367; Mohan et al., 1995, J. Immunol. 154:1470; Adams et al., 1991, Proc. Natl. Acad. Sci. USA 88:11271).

SNF1 mice [2] = assay: Chronic therapy of established glomerulonephritis with nucleosomal peptides; type: in vivo, mouse; details: for survival: by 26 months age; for mice alive: two months after start of treatment (all controls dead), 300 micrograms i.p. monthly, 18-month old mice
Method: Six mice per group were injected intraperitoneally once each month with either a saline solution or a peptide solution comprising saline and 300 micrograms of one of the identified peptides. The endpoint of these experiments was the development of moribund state due to renal failure.

B cells [3] = assay: Helper assay: B cells from peptide-injected mice co-cultured with CD4+ T cells from unmanipulated SNF1 mice; type: cell-based, mouse
Description: as §2
(§3) T-cells from peptide-treated mice used in the short-term experiments were co-cultured with splenic B cells from unmanipulated mice. Conversely, T cells from unmanipulated SNF1 mice (i.e. control mice) were co-cultured with splenic B cells from tolerized (i.e. peptide-injected) mice. Each of the cell types was seeded in 24-well plates at an initial concentration of 2.5×10^6 cells per well. Cultures were maintained for 7 days, as previously described (Datta et al., 1987, J. Exp. Med. 165:1252; Sainis and Datta, 1988, J. Immunol. 140:2215). B cells from unmanipulated or tolerized animals were cultured alone to measure baseline autoantibody production. Culture supernatants were collected, freeze-thawed, and assayed by ELISA for antibodies against ssDNA, dsDNA, histones and nucleosomes. For studies involving stimulation of B cells by soluble CD40 ligand, CD40L-CD8 fusion protein (Wortis et al., 1995, Proc. Natl. Acad. Sci. USA 92:3348) was added to either the co-culture wells or the wells with B cells alone and maintained in the medium for the entire 7-day culture period.

SNF1 mice [4] = assay: Brief therapy with nucleosomal histone peptides (long-term experiments): incidence of severe nephritis; type: in vivo, mouse
Method: as §1

B cells [5] = assay: Stimulation of purified B cells from peptide-injected mice (anti-Ig (Fab')2, rIL-4, CD40L, LPS); type: cell-based, mouse
Description: as §2, §3

CD4+ T cells = assay: Helper assay: CD4+ T cells from peptide-injected mice co-cultured with B cells from unmanipulated SNF1 mice; type: cell-based, mouse; details: for reduction of anti-ssDNA antibody production relative to control group / reduction of anti-dsDNA antibody production compared with control group: T cells from treated mice + B cells from unmanipulated mice; for reduction of anti-dsDNA antibody production compared with control group: 7 days; for increase in help for anti-dsDNA antibody production following addition of rIL-2: rIL-2 added at beginning of 7-day culture
Description: as §2, §3

HLA-DR = details: cited from earlier work
SNF1 mice [6] = assay: Short-term tolerance experiments: grading of lupus nephritis at sacrifice; type: in vivo, mouse; details: short-term batch, at sacrifice two weeks after last injection
Method: Short-term experiments were conducted to test the early immunological consequences of tolerance therapy. Twelve week old SNF1 mice were injected once a week for four weeks with either a saline solution or a peptide solution comprising saline and 300 micrograms of one of the above described peptides. Mice were sacrificed at two weeks after the last injection. Presence of autoimmune T and B cells was analyzed and renal lesions were graded.

[7] = test system: short-term CD4+ T cell lines; assay: IL-2 production by short-term CD4+ T cell lines in response to histone peptides (pepscan); type: cell-based, human; details: short-term lines from 10 lupus patients
Method: Short-term T cell lines were rapidly thawed from liquid nitrogen and expanded in the presence of plate-bound anti-CD3 mAb, anti-CD28 mAb, and rIL-2 (20 units per milliliter). The expanded cells were transferred to fresh culture wells and rested by incubating in fresh medium for 10 to 14 days. For stimulation assays, 96 well plates were coated with 2 micrograms per milliliter of goat anti-mouse IgG antibodies overnight at 37° C. After washing the plates twice with Dulbecco's phosphate-buffered saline (dPBS), autologous and previously irradiated (3,000 rad) EBV-B cells (APC) were first added to each well at a concentration of 1×10^5 cells per well. The cells (APC) were cultured together with either a core histone peptide or a control peptide for 6 hours in HL-1 serum free medium (Bio Whittaker, Maryland). This procedure was followed by the addition to each well of CD4^+ T cells from the short-term lines at a concentration of 1×10^5 cells per well, and the addition of 0.5 micrograms per milliliter of a mouse monoclonal antibody (mAb) to human CD28. The final volume of the cultures was 200 microliters per well. Cells were co-cultured for 24 hours at 37° C. One-half the volume of supernatant was collected from each well for ELISA analysis of interleukin levels. Fresh medium (100 microliters) was added to cells, and the cells were incubated an additional 48 hours. [^3H] thymidine was added, and the cultures were incubated an additional 18 hours. Incorporated radioactivity was measured to quantitate T cell proliferation as described previously (Desai-Mehta et al., 1995, J. Clin. Invest. 95:53 1-541). HLA class II dependence of antigen-specific responses by the CD4^+ T cells was determined by adding to the co-cultures a blocking antibody from a panel of mAb to HLA class II molecules, as described previously (Desai-Mehta et al., 1995, J. Clin. Invest. 95:53 1-541).
IL-2 secreted by CD4^+ T cells in short term experiments was measured using an ELISA. Capture and biotinylated antibody pairs directed at human IL-2 and standards for use therein were purchased from PharMingen. […]

CD4+ T cell clone DD2 = assay: IL-2 production by lupus Th cell clone DD2 in response to histone peptides; type: cell-based, human; details: autologous EBV-B cells pulsed with peptide as APC
Method: Short-term T cell lines were rapidly thawed from liquid nitrogen and expanded in the presence of plate-bound anti-CD3 mAb, anti-CD28 mAb, and rIL-2 (20 units per milliliter). The expanded cells were transferred to fresh culture wells and rested by incubating in fresh medium for 10 to 14 days. For stimulation assays, 96 well plates were coated with 2 micrograms per milliliter of goat anti-mouse IgG antibodies overnight at 37° C. After washing the plates twice with Dulbecco's phosphate-buffered saline (dPBS), autologous and previously irradiated (3,000 rad) EBV-B cells (APC) were first added to each well at a concentration of 1×10^5 cells per well. The cells (APC) were cultured together with either a core histone peptide or a control peptide for 6 hours in HL-1 serum free medium (Bio Whittaker, Maryland). This procedure was followed by the addition to each well of CD4^+ T cells from the short-term lines at a concentration of 1×10^5 cells per well, and the addition of 0.5 micrograms per milliliter of a mouse monoclonal antibody (mAb) to human CD28. The final volume of the cultures was 200 microliters per well. Cells were co-cultured for 24 hours at 37° C. One-half the volume of supernatant was collected from each well for ELISA analysis of interleukin levels. Fresh medium (100 microliters) was added to cells, and the cells were incubated an additional 48 hours. [^3H] thymidine was added, and the cultures were incubated an additional 18 hours. Incorporated radioactivity was measured to quantitate T cell proliferation as described previously (Desai-Mehta et al., 1995, J. Clin. Invest. 95:53 1-541). HLA class II dependence of antigen-specific responses by the CD4^+ T cells was determined by adding to the co-cultures a blocking antibody from a panel of mAb to HLA class II molecules, as described previously (Desai-Mehta et al., 1995, J. Clin. Invest. 95:53 1-541). […]
IL-2 secreted by CD4^+ T cells in short term experiments was measured using an ELISA. […]

[8] = test system: splenic T cells of pre-nephritic SNF1 mice; details: cited from earlier work
[9] = test system: anti-DNA autoantibodies of lupus; details: cited from earlier work
[10] = at 36 weeks of age, control 26±3.2
[11] = at the start of treatment (12 weeks), control 5.5±0.3
[12] = at 28 weeks of age, 300 micrograms i.v., four injections at two-week intervals from 12 weeks
[13] = at 36-38 weeks of age, control 88.8%
[14] = rIL-2 added, not significant relative to control

H471-94: histone 4 protein (H4) amino acids 71-94
serum anti-dsDNA antibody level (SNF1 mice [1]; [10]): 17.1±2.7 units | serum anti-dsDNA antibody level (SNF1 mice [1]; [11]): 5.4±1.1 units | survival (SNF1 mice [2]): all of the H471-94 group mice had succumbed to renal disease | mice alive (SNF1 mice [2]): 66.6% | production of anti-histone antibodies relative to control group (B cells [3]): remained significantly low | production of anti-nucleosome antibodies relative to control group (B cells [3]): remained significantly low | incidence of severe nephritis (SNF1 mice [4]; [12]): 33.3% | incidence of severe nephritis (SNF1 mice [4]; [13]): 33.3% | antibody production by B cells stimulated with anti-Ig (Fab')2 in presence or absence of rIL-4 (B cells [5]): could be stimulated to produce autoantibodies at levels similar to those of the control mice | reduction of anti-ssDNA antibody production relative to control group (CD4+ T cells): not significant | reduction of anti-dsDNA antibody production compared with control group (CD4+ T cells): approximately 50% | increase in help for anti-dsDNA antibody production following addition of rIL-2 (CD4+ T cells): did not exhibit any increase | binding to HLA-DR (HLA-DR): have actually been shown to bind HLA-DR | Percent Incidence, Grading of Lupus Nephritis 2+ (SNF1 mice [6]): 66.6 | Percent Incidence, Grading of Lupus Nephritis 3+ (SNF1 mice [6]): 33.3

H416-39: nucleosomal histone peptide of histone 4 protein (H4), amino acid positions 16-39
serum anti-dsDNA antibody level (SNF1 mice [1]; [10]): 13.0±4.0 units | serum anti-dsDNA antibody level (SNF1 mice [1]; [11]): 9.0±2.1 units | survival (SNF1 mice [2]): all of the H416-39 group mice remained alive | animals exhibiting a reduction in proteinuria levels (SNF1 mice [2]; during the course of the experiment): 66.6% | proteinuria level after reduction (SNF1 mice [2]; reduced from 300-1000 milligrams per deciliter): less than 100 milligrams per deciliter | mice alive (SNF1 mice [2]): none of the mice in H416-39 group had died | ability of B cells to produce IgG autoantibodies in presence of T helper cells (B cells [3]): diminished levels of all autoantibodies | production of anti-nucleosome antibodies relative to control group (B cells [3]): reduced by three fold | reduction of anti-histone antibody production relative to control group (B cells [3]): approximately 4 fold | level of anti-dsDNA antibodies produced by B cells (B cells [3]; control 160±18.5): 45±10.1 units per deciliter | production of anti-ssDNA antibodies by B cells (B cells [3]; control 170±10.9 units per deciliter): 60±7.9 units | incidence of severe nephritis (SNF1 mice [4]; [12]): did not develop disease | incidence of severe nephritis (SNF1 mice [4]; [13]): 11.1% | incidence of severe nephritis (SNF1 mice [4]; at 54 weeks of age): 55.5% | antibody production by B cells stimulated with anti-Ig (Fab')2 in presence or absence of rIL-4 (B cells [5]): did not respond by increasing antibody production | antibody production by B cells with addition of CD40L and rIL-4 (B cells [5]): did not produce significant amounts of antibodies | reduction of anti-ssDNA antibody production relative to control group (CD4+ T cells): approximately 55% | reduction of anti-dsDNA antibody production compared with control group (CD4+ T cells): approximately 50% | increase in help for anti-dsDNA antibody production following addition of rIL-2 (CD4+ T cells): 35% | increase in anti-nucleosome antibodies following addition of rIL-2 (CD4+ T cells; [14]): 20% | increase in anti-ssDNA antibodies following addition of rIL-2 (CD4+ T cells; [14]): 30% | binding to HLA-DR (HLA-DR): have actually been shown to bind HLA-DR | Percent Incidence, Grading of Lupus Nephritis 0 (SNF1 mice [6]): 33.3 | Percent Incidence, Grading of Lupus Nephritis 1+ (SNF1 mice [6]): 66.6

H383-97: H3 peptide used as additional background control, partly within a stimulatory region in H3 (RFQSSAVMALQEACE; UniProt P68431 84-98, looked up, fragment)
recognition by / response of lupus T cell lines [7]: not recognized by any of the T-cell lines or clone DD2 | stimulation of DD2 (CD4+ T cell clone DD2): not recognized by any of the T-cell lines or clone DD2

H385-102: epitope in nucleosomal core histone H3, amino acid positions 85-102 (QSSAVMALQEACEAYLVG; UniProt P68431 86-103, looked up, fragment)
response of splenic T cells [8]: spontaneously responded | binding by anti-DNA autoantibodies [9]: also bound by spontaneously arising anti-DNA autoantibodies of lupus
